The record followed here is patent US7557110B2, “Pyrazolo[1,5-A] pyrimidine derivatives” (Teijin Pharma Limited, priority 2003, dated 2009).

As usually defined, the IC50 is the concentration at which inhibition is half-maximal.

One assay addresses CDK-2 (Homo sapiens, UniProt P24941). Nature of the assay: CDK-2 enzyme activity inhibition (33P-ATP filter plate kinase assay). The assay is classed as biochemical. Conditions: read-out: CDK-2 inhibition IC50. From the text: [General Procedure for Measurement of CDK-2 Enzyme Activity Inhibition]
In the next assay the target is MAPKAP-K2 (Homo sapiens, UniProt P49137). Nature of the assay: MAPKAP-K2 enzyme activity inhibition (33P-ATP filter plate kinase assay). Note: key: +: active; ++: more active; +++: very active. The assay is classed as biochemical. Conditions: MAPKAP-K2 inhibitory activity; assays conducted at typically 1-100 μM. On the procedure:
[General Procedure for Measurement of MAPKAP-K2 Enzyme Activity Inhibition]
After conducting the reaction for 30 minutes at room temperature, an equivalent volume of a 200 mM phosphoric acid solution was added to suspend the reaction, and 90 μL of the reaction product was adsorbed onto a MultiScreen PH plate (Millipore) and rinsed with a 100 mM phosphoric acid solution. After drying the plate, 30 μL of MicroScint-O (Packard BioScience) was added, and the cpm was measured with a scintillation counter to determine the inhibiting activity. Substrate peptide is […]

Chain of MAPKAP-K2 (P49137 whole entry): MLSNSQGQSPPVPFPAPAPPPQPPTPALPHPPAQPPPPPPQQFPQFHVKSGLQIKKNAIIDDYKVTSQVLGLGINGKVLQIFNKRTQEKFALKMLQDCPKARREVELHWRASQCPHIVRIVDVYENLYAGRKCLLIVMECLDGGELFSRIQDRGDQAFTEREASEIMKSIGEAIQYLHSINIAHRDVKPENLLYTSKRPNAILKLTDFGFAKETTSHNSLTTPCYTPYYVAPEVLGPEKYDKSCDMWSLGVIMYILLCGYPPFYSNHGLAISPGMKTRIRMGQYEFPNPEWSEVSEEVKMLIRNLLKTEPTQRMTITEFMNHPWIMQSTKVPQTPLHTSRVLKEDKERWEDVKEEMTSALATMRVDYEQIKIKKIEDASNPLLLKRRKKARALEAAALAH

As for `Cc1c(N[C@H]2CC[C@H](N)CC2)nc2ccnn2c1Nc1ccc(OCCC2CCCCC2)cc1` [Compound 215], the IC50 at CDK-2 was < 100 µM. The “activity (efficacy against MAPKAP-K2)” value on MAPKAP-K2 is “++”.
For `Cc1c(N[C@H]2CC[C@H](N)CC2)nc2ccnn2c1Nc1ccc(OC2CCCC2)cc1` [Compound 216] the same measures were < 100 µM and “+++”.
For `Cc1c(N[C@H]2CC[C@H](N)CC2)nc2ccnn2c1Nc1ccc(OC2CCN(C)CC2)cc1` [Compound 217], on CDK-2, the IC50 is < 100 µM. The “activity (efficacy against MAPKAP-K2)” value on MAPKAP-K2 is “++”.
With `Cc1c(N[C@H]2CC[C@H](N)CC2)nc2ccnn2c1Nc1ccc(OC2CCOCC2)cc1` [Compound 219], the IC50 at CDK-2 was < 100 µM. For the same molecule, on MAPKAP-K2, the “activity (efficacy against MAPKAP-K2)” value is “+++”.
With `Cc1c(N[C@H]2CC[C@H](N)CC2)nc2ccnn2c1Nc1ccc(OCCN2CCOCC2)cc1` [Compound 221], the IC50 on CDK-2 is < 100 µM. Also, the “activity (efficacy against MAPKAP-K2)” value at MAPKAP-K2 was “+++”.
On to `Cc1c(N[C@H]2CC[C@H](N)CC2)nc2ccnn2c1Nc1ccc(OCc2cccnc2)cc1` [Compound 222], for which the half-inhibitory concentration (IC50) on CDK-2 is < 100 µM. Besides, on MAPKAP-K2, the “activity (efficacy against MAPKAP-K2)” value is “+++”.
In the same order, the values of `Cc1c(N[C@H]2CC[C@H](N)CC2)nc2ccnn2c1Nc1ccc(OCCN2CCCCC2)cc1` [Compound 223] are < 100 µM and “+++”.
In the same order, the values of `Cc1c(N[C@H]2CC[C@H](N)CC2)nc2ccnn2c1Nc1ccc(OCc2ccccn2)cc1` [Compound 224] are < 100 µM and “+++”.
Turning to `Cc1c(N[C@H]2CC[C@H](N)CC2)nc2ccnn2c1Nc1ccc(OCCc2ccccn2)cc1` [Compound 225], on CDK-2, the half-inhibitory concentration (IC50) was < 100 µM. For the same molecule, the “activity (efficacy against MAPKAP-K2)” value at MAPKAP-K2 is given as “+++”.
Consider `Cc1c(NC2CCC(N)CC2)nc2ccnn2c1Nc1ccc(OCC2CCCN(C)C2)cc1` (centres unmarked) [Compound 226], for which the IC50 at CDK-2 was < 100 µM. In addition, the “activity (efficacy against MAPKAP-K2)” value on MAPKAP-K2 is recorded as “+++”.
For `Cc1c(N[C@H]2CC[C@H](N)CC2)nc2ccnn2c1Nc1ccc(OCCc2ccncc2)cc1` [Compound 228] the same measures were < 100 µM and “+++”.
As to `Cc1c(NC2CCC(N)CC2)nc2ccnn2c1Nc1ccc(OC2CCNC2)cc1` (centres unmarked) [Compound 229], the IC50 at CDK-2 was < 100 µM. In addition, the “activity (efficacy against MAPKAP-K2)” value on MAPKAP-K2 is “+++”.
In the same order, the values of `Cc1c(NC2CCC(N)CC2)nc2ccnn2c1Nc1ccc(OCCC2CCCCN2)cc1` (centres unmarked) [Compound 231] are < 100 µM and “++”.
In the same order, the values of `Cc1c(N[C@H]2CC[C@H](N)CC2)nc2ccnn2c1Nc1ccc(OCC2CCCCC2)cc1` [Compound 237] are < 100 µM and “++”.
Take `Cc1c(N[C@H]2CC[C@H](N)CC2)nc2ccnn2c1Nc1cccc(OCc2ccccc2)c1` [Compound 243]: the IC50 on CDK-2 is < 100 µM. Moreover, the “activity (efficacy against MAPKAP-K2)” value at MAPKAP-K2 was “++”.
In the same order, the values of `Cc1c(N[C@H]2CC[C@H](N)CC2)nc2ccnn2c1Nc1cccc(OCc2cccc(Cl)c2)c1` [Compound 247] are < 100 µM and “++”.
In the same order, the values of `Cc1c(N[C@H]2CC[C@H](N)CC2)nc2ccnn2c1Nc1cccc(OCc2ccc(Cl)cc2)c1` [Compound 248] are < 100 µM and “++”.
In the same order, the values of `Cc1c(NC2CCC(N)CC2)nc2ccnn2c1Nc1ccc(OCC2CCCCN2)cc1` (centres unmarked) [Compound 251] are < 100 µM and “+++”.
Take `Cc1c(NC2CCC(N)CC2)nc2ccnn2c1Nc1ccc(OCC2CCCO2)cc1` (centres unmarked) [Compound 256]: the IC50 at CDK-2 was < 100 µM. For the same molecule, at MAPKAP-K2, the “activity (efficacy against MAPKAP-K2)” value is “+++”.
Consider `Cc1c(N[C@H]2CC[C@H](N)CC2)nc2ccnn2c1Nc1cccc(OCc2cccnc2)c1` [Compound 274], for which the IC50 on CDK-2 is < 100 µM. Further, the “activity (efficacy against MAPKAP-K2)” value at MAPKAP-K2 is given as “++”.
In the same order, the values of `Cc1c(N[C@H]2CC[C@H](N)CC2)nc2ccnn2c1Nc1ccc(-c2ccccc2)cc1` [Compound 284, {5-[(trans-4-aminocyclohexyl)amino]-6-methyl(pyrazolo[1,5-a]pyrimidin-7-yl)}(4-phenylphenyl)amine] are < 100 µM and “+++”.
For `COc1ccccc1-c1ccc(Nc2c(C)c(N[C@H]3CC[C@H](N)CC3)nc3ccnn23)cc1` [Compound 287], the IC50 on CDK-2 was < 100 µM. The “activity (efficacy against MAPKAP-K2)” value at MAPKAP-K2 was “+++”.
Regarding `Cc1c(N[C@H]2CC[C@H](N)CC2)nc2ccnn2c1Nc1ccc(-c2cccc(N)c2)cc1` [Compound 288], on CDK-2, the IC50 was < 100 µM. In addition, the “activity (efficacy against MAPKAP-K2)” value at MAPKAP-K2 is listed as “+++”.
For `Cc1c(N[C@H]2CC[C@H](N)CC2)nc2ccnn2c1Nc1ccc(-c2cc3ccccc3s2)cc1` [Compound 289] the same measures were < 100 µM and “+++”.
Regarding `Cc1c(N[C@H]2CC[C@H](N)CC2)nc2ccnn2c1Nc1ccc(-c2cc3ccccc3o2)cc1` [Compound 290], on CDK-2, the concentration for half-maximal inhibition (IC50) is < 100 µM. Besides, the “activity (efficacy against MAPKAP-K2)” value on MAPKAP-K2 is reported as “+++”.
As to `Cc1c(N[C@H]2CC[C@H](N)CC2)nc2ccnn2c1Nc1ccc(-c2csc3ccccc23)cc1` [Compound 292], the IC50 on CDK-2 was < 100 µM. Moreover, the “activity (efficacy against MAPKAP-K2)” value at MAPKAP-K2 is recorded as “++”.
With `N[C@H]1CC[C@H](Nc2cc(NCc3cccc(Cl)c3)n3ncc(I)c3n2)CC1` [Compound 297, {5-[(trans-4-aminocyclohexyl)amino]-3-iodo(pyrazolo[1,5-a]pyrimidin-7-yl)}[(3-chlorophenyl)methyl]amine], the IC50 on CDK-2 was < 100 µM. Further, the “activity (efficacy against MAPKAP-K2)” value at MAPKAP-K2 is reported as “++”.
Regarding `Cc1c(N[C@H]2CC[C@H](N)CC2)nc2ccnn2c1Nc1ccc(-c2ccncc2)cc1` [Compound 299], at CDK-2, the half-inhibitory concentration (IC50) was < 100 µM. Also, on MAPKAP-K2, the “activity (efficacy against MAPKAP-K2)” value is “+++”.
Consider `Cc1c(N[C@H]2CC[C@H](N)CC2)nc2ccnn2c1Nc1ccc(-c2cccnc2)cc1` [Compound 300], for which, at CDK-2, the half-inhibitory concentration (IC50) was < 100 µM. In addition, on MAPKAP-K2, the “activity (efficacy against MAPKAP-K2)” value is recorded as “+++”.
In the same order, the values of `Cc1c(N[C@H]2CC[C@H](N)CC2)nc2ccnn2c1Nc1ccc(-c2ccc(N)cc2)cc1` [Compound 301] are < 100 µM and “+++”.
In the same order, the values of `Cc1c(N[C@H]2CC[C@H](N)CC2)nc2ccnn2c1Nc1ccc(-c2ccc(F)cc2)cc1` [Compound 303] are < 100 µM and “+++”.
For `Cc1c(N[C@H]2CC[C@H](N)CC2)nc2ccnn2c1Nc1ccc(-c2cccc(F)c2)cc1` [Compound 304], the IC50 on CDK-2 was < 100 µM. For the same molecule, the “activity (efficacy against MAPKAP-K2)” value at MAPKAP-K2 is “+++”.
In the case of `Cc1c(N[C@H]2CC[C@H](N)CC2)nc2ccnn2c1Nc1ccc(-c2ccccc2F)cc1` [Compound 305], the IC50 at CDK-2 was < 100 µM. Further, the “activity (efficacy against MAPKAP-K2)” value on MAPKAP-K2 was “+++”.
Turning to `Cc1c(N[C@H]2CC[C@H](N)CC2)nc2ccnn2c1Nc1ccc(-c2ccc(O)cc2)cc1` [Compound 306], the IC50 at CDK-2 was < 100 µM. At MAPKAP-K2, the “activity (efficacy against MAPKAP-K2)” value is “+++”.
In the same order, the values of `Cc1c(N[C@H]2CC[C@H](N)CC2)nc2ccnn2c1Nc1ccc(-c2cccc(O)c2)cc1` [Compound 307] are < 100 µM and “+++”.
For `Cc1c(N[C@H]2CC[C@H](N)CC2)nc2ccnn2c1Nc1ccc(-c2ccoc2)cc1` [Compound 309] the same measures were < 100 µM and “+++”.
In the same order, the values of `Cc1c(N[C@H]2CC[C@H](N)CC2)nc2ccnn2c1Nc1ccc(-c2ccsc2C=O)cc1` [Compound 310] are < 100 µM and “++”.
Consider `Cc1c(N[C@H]2CC[C@H](N)CC2)nc2ccnn2c1Nc1ccc(-c2cncnc2)cc1` [Compound 311], for which the IC50 at CDK-2 is < 100 µM. Besides, the “activity (efficacy against MAPKAP-K2)” value on MAPKAP-K2 was “+++”.
For `Cc1c(N[C@H]2CC[C@H](N)CC2)nc2ccnn2c1Nc1ccc(-c2ccc(Cl)cc2)cc1` [Compound 312] the same measures were < 100 µM and “+++”.
Turning to `Cc1c(N[C@H]2CC[C@H](N)CC2)nc2ccnn2c1Nc1ccc(-c2ccccc2Cl)cc1` [Compound 313], the IC50 at CDK-2 was < 100 µM. On MAPKAP-K2, the “activity (efficacy against MAPKAP-K2)” value is recorded as “++”.
In the same order, the values of `Cc1c(N[C@H]2CC[C@H](N)CC2)nc2ccnn2c1Nc1ccc(-c2ccc(N(C)C)cc2)cc1` [Compound 314] are < 100 µM and “+++”.
As for `Cc1c(N[C@H]2CC[C@H](N)CC2)nc2ccnn2c1Nc1ccc(-c2cccc(N(C)C)c2)cc1` [Compound 315], the IC50 on CDK-2 is < 100 µM. Further, on MAPKAP-K2, the “activity (efficacy against MAPKAP-K2)” value is on record as “+++”.
Turning to `Cc1c(N[C@H]2CC[C@H](N)CC2)nc2ccnn2c1Nc1ccc(-c2cccc(OC(F)(F)F)c2)cc1` [Compound 316], at CDK-2, the 50% inhibitory concentration (IC50) was < 100 µM. In addition, the “activity (efficacy against MAPKAP-K2)” value on MAPKAP-K2 is reported as “+++”.
As to `Cc1c(N[C@H]2CC[C@H](N)CC2)nc2ccnn2c1Nc1ccc(-c2ccc(OC(F)(F)F)cc2)cc1` [Compound 317], on CDK-2, the 50% inhibitory concentration (IC50) is < 100 µM. Moreover, the “activity (efficacy against MAPKAP-K2)” value at MAPKAP-K2 is “+++”.
Consider `Cc1c(N[C@H]2CC[C@H](N)CC2)nc2ccnn2c1Nc1ccc(-c2ccc(C#N)cc2)cc1` [Compound 318], for which the IC50 at CDK-2 was < 100 µM. On MAPKAP-K2, the “activity (efficacy against MAPKAP-K2)” value is reported as “+++”.
In the same order, the values of `Cc1c(N[C@H]2CC[C@H](N)CC2)nc2ccnn2c1Nc1ccc(-c2cccc(C#N)c2)cc1` [Compound 319] are < 100 µM and “+++”.
